From patent US20250368649A1, “TETRAHYDROPYRIDOPYRIMIDINE PAN-KRAS INHIBITORS” (Mirati Therapeutics, Inc., priority 2022, published 2025)

Experiments:
PSN1 cells = assay: Inhibition of KRas-mediated phosphorylation of ERK (Cisbio HTRF pERK), PSN1 cells; assay type: cell-based; conditions: Homo sapiens, PSN1, 3 h, 3 hour compound incubation, Cisbio pERK HTRF
Experimental: (§1) Inhibition of KRas Phosphorylation of ERK (HTRF) by Exemplary Compounds of Formula (I) Cisbio HTRF Advanced pERK Assay Catalog #64AERPEH • Cells: MKN1, PSN1 • Procedure: • Day 1: Seed 6,000 cells/well -25 µl/well in 384-well white solid bottom plate; RPM1_10% FBS.

KRas G12D = KRas G12D (Homo sapiens, UniProt P01116, G12D); assay: biochemical; conditions: Binding to KRas (IC50 nM) G12D, TR-FRET displacement, KRas G12D
H460 cells = assay: Inhibition of KRas-mediated phosphorylation of ERK (Cisbio HTRF pERK), H460 cells; assay type: cell-based; conditions: Homo sapiens; for inhibition at 0.1 µM: NCI-H460, single point at 100 nM, 3 hrs compound incubation; for IC50: NCI-H460, 3 h, 3 hr compound incubation, Cisbio pERK HTRF
ASPC1 cells = assay: Inhibition of KRas-mediated phosphorylation of ERK (Cisbio HTRF pERK), ASPC1 cells; assay type: cell-based; conditions: Homo sapiens, ASPC1, 3 h, AsPC-1 cells; 3 hr compound incubation; Cisbio pERK HTRF
KRas G12R = KRas G12R (Homo sapiens, UniProt P01116, G12R); assay: biochemical; conditions: Binding to KRas (IC50 nM) G12R, TR-FRET displacement, KRas G12R
H727 cells = assay: Inhibition of KRas-mediated phosphorylation of ERK (Cisbio HTRF pERK), H727 cells; assay type: cell-based; conditions: Homo sapiens, NCI-H727, 3 h, 3 hr compound incubation, Cisbio pERK HTRF
MKN1 cells = assay: Inhibition of KRas-mediated phosphorylation of ERK (Cisbio HTRF pERK), MKN1 cells; assay type: cell-based; conditions: Homo sapiens, MKN-1, 3 hour compound incubation, Cisbio pERK HTRF
Experimental: as §1

KRas G12V = KRas G12V (Homo sapiens, UniProt P01116, G12V); assay: biochemical; conditions: Binding to KRas (IC50 nM) G12V, TR-FRET displacement, KRas G12V
HCT116 cells = assay: Inhibition of KRas-mediated phosphorylation of ERK (Cisbio HTRF pERK), HCT116 cells; assay type: cell-based; conditions: Homo sapiens; for inhibition at 0.1 µM: HCT-116, single point at 100 nM, 3 hrs compound incubation; for IC50: HCT-116, 3 h, 3 hr compound incubation, Cisbio pERK HTRF
A549 cells = assay: Inhibition of KRas-mediated phosphorylation of ERK (Cisbio HTRF pERK), A549 cells; assay type: cell-based; conditions: Homo sapiens; for IC50: A549, 3 h, 3 hr compound incubation, Cisbio pERK HTRF
H358 cells = assay: Inhibition of KRas-mediated phosphorylation of ERK (Cisbio HTRF pERK), H358 cells; assay type: cell-based; conditions: Homo sapiens, NCI-H358, single point at 100 nM, 3 hrs compound incubation

Chain of KRas G12R (P01116 1-169 isoform P01116-2 G12R): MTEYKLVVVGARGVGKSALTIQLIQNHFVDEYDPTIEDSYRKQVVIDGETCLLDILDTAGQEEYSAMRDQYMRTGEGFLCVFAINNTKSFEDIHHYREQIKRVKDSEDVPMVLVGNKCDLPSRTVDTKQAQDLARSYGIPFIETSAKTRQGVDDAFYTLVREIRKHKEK
Chain of KRas G12D (P01116 1-169 isoform P01116-2 G12D): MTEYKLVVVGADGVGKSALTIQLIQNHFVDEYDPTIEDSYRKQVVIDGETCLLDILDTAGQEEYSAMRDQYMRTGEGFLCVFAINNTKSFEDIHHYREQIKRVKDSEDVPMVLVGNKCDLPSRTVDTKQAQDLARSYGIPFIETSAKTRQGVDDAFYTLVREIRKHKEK
Chain of KRas G12V (P01116 1-169 isoform P01116-2 G12V): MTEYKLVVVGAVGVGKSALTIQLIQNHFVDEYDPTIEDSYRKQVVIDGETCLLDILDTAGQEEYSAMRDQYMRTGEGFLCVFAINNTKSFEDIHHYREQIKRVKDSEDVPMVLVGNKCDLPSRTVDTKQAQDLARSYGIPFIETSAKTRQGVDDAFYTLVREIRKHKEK

SMILES	IC50 (PSN1 cells)	IC50 (KRas G12D)	IC50 (ASPC1 cells)	IC50 (KRas G12R)	IC50 (H727 cells)	IC50 (MKN1 cells)	IC50 (KRas G12V)	IC50 (A549 cells)	IC50 (HCT116 cells)	IC50 (H460 cells)	inhibition at 0.1 µM (H460 cells)	inhibition at 0.1 µM (HCT116 cells)	inhibition at 0.1 µM (A549 cells; single point at 100 nM, 3 hrs compound incubation)	inhibition at 0.1 µM (H358 cells)
CCc1c(F)ccc2cc(O)cc(N3CCc4c(nc(OC[C@@]56CCCN5C[C@H](F)C6)nc4N4CCCc5nc[nH]c5C4)C3)c12 [Example 357, 4-(4-(7,8-dihydroimidazo[4,5-c]azepin-5(3H,4H,6H)-yl)-2-(((2R,7aS)-2-fluorohexahydro-1H-pyrrolizin-7a-yl)methoxy)-5,6-dihydropyrido[3,4-d]pyrimidin-7(8H)-yl)-5-ethyl-6-fluoronaphthalen-2-ol]	> 10000 nM	11 nM	4410 nM	7 nM	1830 nM	2600 nM	6 nM				12%	-20%		
CCc1c(F)ccc2cc(O)cc(N3CCc4c(nc(OC[C@@]56CCCN5C[C@H](F)C6)nc4N4CCCc5n[nH]cc5C4)C3)c12 [Example 361, 4-(4-(7,8-dihydropyrazolo[4,3-c]azepin-5(2H,4H,6H)-yl)-2-(((2R,7aS)-2-fluorohexahydro-1H-pyrrolizin-7a-yl)methoxy)-5,6-dihydropyrido[3,4-d]pyrimidin-7(8H)-yl)-5-ethyl-6-fluoronaphthalen-2-ol]	> 10000 nM	14 nM	636 nM	5 nM	466 nM	401 nM	6 nM				1%	-11%		
CCc1c(F)ccc2cc(O)cc(N3CCc4c(nc(OC[C@@]56CCCN5C[C@H](F)C6)nc4N4CCCn5nc(NS(C)(=O)=O)cc5C4)C3)c12 [Example 364, N-(5-(7-(8-ethyl-7-fluoro-3-hydroxynaphthalen-1-yl)-2-(((2R,7aS)-2-fluorohexahydro-1H-pyrrolizin-7a-yl)methoxy)-5,6,7,8-tetrahydropyrido[3,4-d]pyrimidin-4-yl)-5,6,7,8-tetrahydro-4H-pyrazolo[1,5-a][1,4]diazepin-2-yl)methanesulfonamide]	> 10000 nM	2 nM	997 nM	< 2 nM	716 nM	456 nM	3 nM				13%	10%		
CCc1c(F)ccc2cc(O)cc(N3CCc4c(nc(OC[C@@]56CCCN5C[C@H](F)C6)nc4N4CCCn5nc(C(=O)O)cc5C4)C3)c12 [Example 389, 5-(7-(8-ethyl-7-fluoro-3-hydroxynaphthalen-1-yl)-2-(((2R,7aS)-2-fluorohexahydro-1H-pyrrolizin-7a-yl)methoxy)-5,6,7,8-tetrahydropyrido[3,4-d]pyrimidin-4-yl)-5,6,7,8-tetrahydro-4H-pyrazolo[1,5-a][1,4]diazepine-2-carboxylic acid]	> 10000 nM	< 2 nM	492 nM	< 2 nM	214 nM	54.8 nM	< 2 nM		> 10000 nM				-36%	23%
CCc1c(NC)nn2c1CN(c1nc(OC[C@@]34CCCN3C[C@H](F)C4)nc3c1CCN(c1cc(O)cc4ccc(F)c(CC)c14)C3)CCC2 [Example 404]	> 10000 nM	5 nM	182 nM	3 nM	188 nM	43.5 nM	6 nM	134 nM	424 nM	178 nM				
CCc1c(F)ccc2cc(O)cc(N3CCc4c(nc(OCC5(CN(C)C)CC5)nc4N4CCCn5nncc5C4)C3)c12 [Example 430, 4-(4-(7,8-dihydro-4H-[1,2,3]triazolo[1,5-a][1,4]diazepin-5(6H)-yl)-2-((1-((dimethylamino)methyl)cyclopropyl)methoxy)-5,6-dihydropyrido[3,4-d]pyrimidin-7(8H)-yl)-5-ethyl-6-fluoronaphthalen-2-ol]	> 10000 nM	< 2 nM	134 nM	< 2 nM	269 nM	94.9 nM	< 2 nM	592 nM	1030 nM	439 nM				
Oc1cc(N2CCc3c(nc(OC[C@@]45CCCN4C[C@H](F)C5)nc3N3CCCC4(CCSC4)C3)C2)c2c(Cl)c(F)ccc2c1 (stereo partly drawn) [Example 464, 5-chloro-6-fluoro-4-(2-(((2R,7aS)-2-fluorohexahydro-1H-pyrrolizin-7a-yl)methoxy)-4-(2-thia-7-azaspiro[4.5]decan-7-yl)-5,6-dihydropyrido[3,4-d]pyrimidin-7(8H)-yl)naphthalen-2-ol]	> 10000 nM	9 nM	1000 nM	12 nM	1180 nM	676 nM	8 nM				-24%	14%		

Continued, in another order:

IC50 (PSN1 cells)	IC50 (KRas G12D)	IC50 (ASPC1 cells)	IC50 (KRas G12R)	IC50 (H727 cells)	IC50 (MKN1 cells)	IC50 (KRas G12V)	IC50 (A549 cells)	IC50 (HCT116 cells)	IC50 (H460 cells)	SMILES	inhibition at 0.1 µM (H460 cells)	inhibition at 0.1 µM (HCT116 cells)	inhibition at 0.1 µM (A549 cells; single point at 100 nM, 3 hrs compound incubation)	inhibition at 0.1 µM (H358 cells)
> 10000 nM	3 nM	1060 nM	5 nM	1220 nM	814 nM	4 nM				CCc1c(F)ccc2cc(O)cc(N3CCc4c(nc(OC[C@@]56CCCN5C[C@H](F)C6)nc4N4CCCn5nc(CNC(=O)N(C)C)cc5C4)C3)c12 [Example 354, 3-((5-(7-(8-ethyl-7-fluoro-3-hydroxynaphthalen-1-yl)-2-(((2R,7aS)-2-fluorohexahydro-1H-pyrrolizin-7a-yl)methoxy)-5,6,7,8-tetrahydropyrido[3,4-d]pyrimidin-4-yl)-5,6,7,8-tetrahydro-4H-pyrazolo[1,5-a][1,4]diazepin-2-yl)methyl)-1,1-dimethylurea]	8%	11%		
> 10000 nM	3 nM	597 nM	9 nM	562 nM	417 nM	6 nM				CCc1c(F)ccc2cc(O)cc(N3CCc4c(nc(OC[C@@]56CCCN5C[C@H](F)C6)nc4N4CCCn5nc(N(C)C(C)=O)cc5C4)C3)c12 [Example 355, N-(5-(7-(8-ethyl-7-fluoro-3-hydroxynaphthalen-1-yl)-2-(((2R,7aS)-2-fluorohexahydro-1H-pyrrolizin-7a-yl)methoxy)-5,6,7,8-tetrahydropyrido[3,4-d]pyrimidin-4-yl)-5,6,7,8-tetrahydro-4H-pyrazolo[1,5-a][1_4]diazepin-2-yl)-N-methylacetamide]	18%	-28%		
> 10000 nM	< 2 nM	262 nM	3 nM	284 nM	216 nM	3 nM	524 nM			CCc1c(F)ccc2cc(O)cc(N3CCc4c(nc(OC[C@@]56CCCN5C[C@H](F)C6)nc4N4CCCn5nc(NC(C)=O)cc5C4)C3)c12 [Example 356, N-(5-(7-(8-ethyl-7-fluoro-3-hydroxynaphthalen-1-yl)-2-(((2R,7aS)-2-fluorohexahydro-1H-pyrrolizin-7a-yl)methoxy)-5,6,7,8-tetrahydropyrido[3,4-d]pyrimidin-4-yl)-5,6,7,8-tetrahydro-4H-pyrazolo[1,5-a][1,4]diazepin-2-yl)acetamide]	28%	-2%		
7050 nM	10 nM	666 nM	6 nM	489 nM	69.1 nM	5 nM				CCc1c(F)ccc2cc(O)cc(N3CCc4c(nc(OC[C@@]56CCCN5C[C@H](F)C6)nc4N4CCCC(O)(C(N)=O)C4)C3)c12 (stereo partly drawn) [Example 368, 1-(7-(8-ethyl-7-fluoro-3-hydroxynaphthalen-1-yl)-2-(((2R,7aS)-2-fluorohexahydro-1H-pyrrolizin-7a-yl)methoxy)-5,6,7,8-tetrahydropyrido[3,4-d]pyrimidin-4-yl)-3-hydroxypiperidine-3-carboxamide]	31%	1%		
5700 nM	13 nM	208 nM	< 2 nM	128 nM	29.3 nM	< 2 nM	63 nM	273 nM	84 nM	CCc1c(F)ccc2cc(O)cc(N3CCc4c(nc(OC[C@@]56CCCN5C[C@H](F)C6)nc4N4CCCSCC4)C3)c12 [Example 417, 5-ethyl-6-fluoro-4-(2-(((2R,7aS)-2-fluorohexahydro-1H-pyrrolizin-7a-yl)methoxy)-4-(1,4-thiazepan-4-yl)-5,6-dihydropyrido[3,4-d]pyrimidin-7(8H)-yl)naphthalen-2-ol]				
